How the values were obtained:
PC12 cells [1] = experiment: PC12 cell survival after SOD1 down-regulation by V-ASOD1; assay type: cell-based, rat
Method: (§1) PC12 cells were grown as previously described (Greene and Tishcler, 1976) on rat-tail collagen-coated dishes in RPMI 1640 medium containing 5% fetal calf serum and 10% heat-inactivated horse serum (complete medium). NGF primed PC12 cells were grown for at least 7 days in RPMI 1640 medium plus 1% horse serum and NGF (100 ng/ml). For cell survival assays involving trophic factor deprivation, cells (either naive or NGF-pretreated) were extensively washed in serum-free RPMI 1640 medium and re-plated on fresh collagen-coated 24-well dishes as previously described (Rukenstein et al., 1991) in RPMI 1640 medium lacking serum or NGF. For SOD1 down-regulation survival assays, cells were re-plated in complete medium with V-ASOD1 (vector linked antisense oligonucleotide to SOD1, 50 nM). Various concentrations of ICE inhibitors were included in the medium as indicated. Numbers of viable cells per culture were determined by quantifying intact nuclei as previously described (Rukenstein et al., 1991). Counts were performed in triplicate and reported as means±SEM.

PC12 cells [2] = experiment: Addition of rhIL-1β to PC12 cultures in the presence of NGF, insulin or serum; assay type: cell-based; conditions: 1 μg/ml
Method: as §1

Q: With “IL-1β: recombinant human IL-1β provided by the NCI” as the substance, how does the “effect of exogenous IL-1β on V-ASOD1 induced death” value (PC12 cells [1]; IL-1β 1 μg/ml with V-ASOD1 50 nM) read?
A: potentiates the cell death

Q: What about the “effect of exogenous IL-1β on protection by V-ICEinh” value (PC12 cells [1]; IL-1β 1 μg/ml, V-ASOD1 50 nM, V-ICEinh 25 nM) of the same substance?
A: abrogates the protection

Q: What about the “effect of exogenous IL-1β alone on cell death” value (PC12 cells [1]; IL-1β 1 μg/ml, no V-ASOD1) of the same substance?
A: no effect

Q: And the “cell death on addition to PC12 cultures” value (PC12 cells [2])?
A: did not produce cell death

— patent publication US6794126B2, “Methods for preventing or inhibiting neuronal cell death” (The Trustees of Columbia University in the City of New York, priority 1996, dated 2004)
